# Test results: patent US5667809A, “Continuous fluorochemical microdispersions for the delivery of lipophilic pharmaceutical agents” (priority 1995, dated 1997)
# Like-named read-outs stand apart in the source and are kept apart here.
# Tests used:
# [1] = tested on: E. coli; assay: Antibacterial activity, E. coli titer in wells with human lung epithelial cells; assay type: cell-based; conditions: saline
# Method: The experimental procedure is followed:
# a). Prepare a monolayer of normal human lung epithelial cells.
# b). Add 60 μL of E. coli culture into the well with lung epithelial cells on the 96-well plate.
# c). […] Incubate at 37° C. overnight.
# d). Aspirate the cultured mixture and diluted with LB media (1:2).
# e). Take 20 μL of diluted mixture and plate on an LB plate for an initial titration of E. coli. The E. coli plates were incubated at 37° C. overnight.
# f). Various dilutions were made according to the initial titer of each mixture so as to determine the accurate titer in each well. A duplicated set of tests was conducted for each treatment.
# g). The titer of E. coli was calculated by multiplying the number of colonies grown on each plate by a dilution factor for each well tested.
# [2] = cited from earlier work
# [3] = intravenous, cited from earlier work
structure (smiles),measurement,setting,value
O=C(O)c1cn(C2CC2)c2cc(N3CCNCC3)c(F)cc2c1=O [Ciprofloxacin],E. coli titer,[1]; 0.05 mg/mL,0 colonies/ml
same,E. coli titer,[1]; 0.1 mg/mL,0 colonies/ml
same,E. coli titer,[1]; 0.6 mg/mL,0 colonies/ml
"Clc1cccc(Cl)c1N=C1NCCN1 [^3 H-clonidine, clonidine]",Log Po/w,[2]; octanol/water,1.4
"c1ccc2cc3ccccc3cc2c1 [^14 C-anthracene, anthracene]",Log Po/w,[2]; octanol/water,4.5
"CCCCC(CC)COC(=O)c1ccc(N(C)C)cc1 (stereo not drawn) [^14 C-padimate-o, padimate-o]",Log Po/w,[2]; octanol/water,6.6
CCCCCC(=O)OCCOCn1cnc2c(=O)[nH]c(N)nc21 [hexanoyl acyclovir],Log Po/w,[2]; pH 7.4,0.93
same,Octanol/water partition coefficient Po/w,[2]; pH 7.4,8.58
CC(=O)O[C@H]1C(=O)[C@@]2(C)[C@H]([C@H](OC(=O)c3ccccc3)[C@]3(O)C[C@H](OC(=O)[C@H](O)[C@@H](NC(=O)c4ccccc4)c4ccccc4)C(C)=C1C3(C)C)[C@]1(OC(C)=O)CO[C@@H]1C[C@@H]2O [paclitaxel],systemic toxicities,[3],cardiac toxicity and neurotoxicity
same,systemic toxicities,[3]; listed as Taxol,high systemic toxicities
CC(C)=CCN1CCC2(C)c3cc(O)ccc3CC1C2C (stereo not drawn) [pentazocin],Octanol/water partition coefficient Po/w,[2]; in octanol/pH 7.4 isotonic phosphate buffer at 37° C. (footnote a on the Log value),150
CC(CN1c2ccccc2Sc2ccccc21)N(C)C (stereo not drawn) [promethazine],Log Po/w,[2]; in octanol/pH 7.4 isotonic phosphate buffer at 37° C.,3.10
CCCCNc1ccc(C(=O)OCCN(C)C)cc1 [tetracaine],Log Po/w,[2]; octanol/water,1.90
CCCCC(=O)OCCOCn1cnc2c(=O)[nH]c(N)nc21 [valeryl acyclovir],Log Po/w,[2]; pH 7.4,0.30
same,Octanol/water partition coefficient Po/w,[2]; pH 7.4,2.01
